# Earlier results, collected in patent US20250152701A1, “NKT CELL LIGAND-CONTAINING LIPOSOME COMPOSITION” (RIKEN, priority 2022, published 2025).
# Details: Non Patent Literature 6
smiles,measurement,value
CCCCCCCCCCCCCCCCCCCCCCCCCC(=O)N[C@@H](CO[C@H]1OC(CO)[C@H](O)C(O)C1O)[C@H](O)[C@H](O)CCCCCCCCCCCCCC (stereo partly shown) [KRN7000],anti-tumor activity,extremely strong anti-tumor activity
